From the supplement of paper PMC11061612

Key:
A204 (Rhabdomyosarcoma) = test: Bliss excess, mean over the matrix (fraction); higher = more synergy
Outline: (§1)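 Bliss excess equals the observed combination effect minus the expected value EA + EB − EA·EB, where EA and EB are the effects of each agent alone. Combination Emax is the second-highest inhibition within the matrix. Inhibition was scaled from CellTiter-Glo 2.0 luminescence, with 0 set by vehicle wells and 1 by blank wells, after 72 hours of two-drug dosing of cells plated in 1536-well plates.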

[1] = system: DU-4475 (Breast Carcinoma); test: as above
Outline: as §1

[2] = system: GA-10 (Burkitt's Lymphoma); test: as above
Outline: as §1

[3] = system: HCC1395 (Breast Carcinoma); test: as above
Outline: as §1

[4] = system: JHH-2 (Hepatocellular Carcinoma); test: as above
Outline: as §1

[5] = system: JVM-2 (B-Cell Non-Hodgkin's Lymphoma); test: as above
Outline: as §1

[6] = system: Jurkat (T-Lymphoblastic Leukemia); test: as above
Outline: as §1

[7] = system: MHH-ES-1 (Ewing's Sarcoma); test: as above
Outline: as §1

[8] = system: TE-10 (Esophageal Squamous Cell Carcinoma); test: as above
Outline: as §1

[9] = system: UACC-812 (Breast Carcinoma); test: as above
Outline: as §1

WM1552C (Melanoma) = test: as above
Outline: as §1

[10] = system: TE-10 (Esophageal Squamous Cell Carcinoma); test: combination Emax (second highest fraction inhibited in the dose matrix, 72 h); higher = more inhibition; extreme values may be limits of the assay
Outline: as §1

| SMILES | Bliss excess (A204 (Rhabdomyosarcoma)) | Bliss excess [1] | Bliss excess [2] | Bliss excess [3] | Bliss excess [4] | Bliss excess [5] | Bliss excess [6] | Bliss excess [7] | Bliss excess [8] | Bliss excess [9] | Bliss excess (WM1552C (Melanoma)) | combination Emax [10] |
| --- | --- | --- | --- | --- | --- | --- | --- | --- | --- | --- | --- | --- |
| CC1(C)CCC(CN2CCN(c3ccc(C(=O)NS(=O)(=O)c4ccc(NCC5CCOCC5)c([N+](=O)[O-])c4)c(Oc4cnc5[nH]ccc5c4)c3)CC2)=C(c2ccc(Cl)cc2)C1 [Venetoclax] + CCN(CCO)CCCOc1ccc2c(Nc3cc(CC(=O)Nc4cccc(F)c4)[nH]n3)ncnc2c1 [AZD2811] (first compound max 1 µM, 7x7, partner max 1 µM) | 0.0005 | 0.0087 | 0.0033 | -0.01 | -0.038 | 0.051 | 0.0202 | 0.0824 | -0.0502 | -0.0283 | -0.0804 | 0.59 |
| COc1cccc(OCCCN)c1-c1cc(Nc2cnc(C#N)cn2)n[nH]1 [Prexasertib] + C[C@@H]1COCCN1C2=NC(=NC(=C2)C3(CC3)[S@](=N)(=O)C)C4=C5C=CNC5=NC=C4 [AZD6738] (first compound max 1 µM, 7x7, partner max 10 µM) | -0.0542 | -0.022 | -0.0023 | -0.0399 | -0.0136 | -0.0625 | -0.0076 | -0.0161 | -0.0244 | 0.049 | -0.0372 | 0.945 |
| COc1cccc2c1C(=O)c1c(O)c3c(c(O)c1C2=O)C[C@@](O)(C(=O)CO)C[C@@H]3O[C@H]1C[C@H](N)[C@H](O)[C@H](C)O1 [Doxorubicin] + Cc1cc2ncnn2cc1Nc1ncc2c(n1)n(C1CCOCC1)c(=O)n2C [AZD7648] (first compound max 1 µM, 7x7, partner max 10 µM) | 0.0782 | 0.143 | 0.0964 | -0.0234 | 0.0229 | 0.071 | 0.181 | 0.0697 | 0.0583 | -0.023 | 0.0398 | 0.746 |
| CC1(C)CCC(CN2CCN(c3ccc(C(=O)NS(=O)(=O)c4ccc(NCC5CCOCC5)c([N+](=O)[O-])c4)c(Oc4cnc5[nH]ccc5c4)c3)CC2)=C(c2ccc(Cl)cc2)C1 [Venetoclax] + Cc1cc2ncnn2cc1Nc1ncc2c(n1)n(C1CCOCC1)c(=O)n2C [AZD7648] (first compound max 1 µM, 7x7, partner max 10 µM) | -0.0172 | 0.0152 | -0.0603 | -0.0491 | -0.069 | -0.025 | 0.0164 | -0.0189 | -0.0068 | 0.0286 | -0.0571 | 0.477 |
| CCc1c2c(nc3ccc(O)cc13)-c1cc3c(c(=O)n1C2)COC(=O)[C@]3(O)CC [SN-38] + O=C(c1cc(Cc2n[nH]c(=O)c3ccccc23)ccc1F)N1CCN(C(=O)C2CC2)CC1 [Olaparib] (first compound max 0.3 µM, 7x7, partner max 10 µM) |  | -0.0271 |  | 0.0315 | -0.0442 | 0.115 |  | 0.0533 | 0.0939 | 0.0333 | 0.0586 | 0.752 |
| Cc1c2c(nn1C)CSCc1cc(n(C)n1)CSc1cc(c3ccccc3c1)OCCCc1c(C(=O)O)n(C)c3c-2c(Cl)ccc13 [AZD5991] + C[C@@H](Nc1cc(F)cc(F)c1)c1cc(C(=O)N(C)C)cc2c(=O)cc(N3CCOCC3)oc12 [AZD8186] (first compound max 1 µM, 7x7, partner max 3 µM) | -0.0051 | -0.0249 | 0.0321 | 0.0527 | -0.0261 | 0.0024 | -0.0077 | -0.0142 | 0.0078 | 0.0043 | 0.0005 | 0.891 |
| CC(=O)Nc1cccc(-n2c(=O)n(C3CC3)c(=O)c3c(Nc4ccc(I)cc4F)n(C)c(=O)c(C)c32)c1 [Trametinib] + Cc1nc(-c2cn3c(n2)-c2ccc(-c4cnn(C(C)(C)C(N)=O)c4)cc2OCC3)n(C(C)C)n1 [Taselisib] (first compound max 1 µM, 7x7, partner max 10 µM) | 0.149 | 0.0664 | 0.0619 | 0.0616 | -0.0221 | 0.0171 | 0.0414 | 0.0141 | 0.127 | 0.0522 | 0.0903 | 0.965 |
| Cc1c2c(nn1C)CSCc1cc(n(C)n1)CSc1cc(c3ccccc3c1)OCCCc1c(C(=O)O)n(C)c3c-2c(Cl)ccc13 [AZD5991] + Cn1cnc2c(F)c(Nc3ccc(Br)cc3Cl)c(C(=O)NOCCO)cc21 [Selumetinib] (first compound max 1 µM, 7x7, partner max 3 µM) | -0.0355 | -0.0018 | 0.0086 | 0.0152 | -0.0154 | 0.0529 | 0.0294 | -0.0127 | 0.0198 | 0.0137 | -0.089 | 0.899 |
